Test results from US20110183991A1, “5HT7 RECEPTOR LIGANDS AND COMPOSITIONS COMPRISING THE SAME” (LABORATORIOS DEL DR. ESTEVE, S.A., priority 2008, published 2011).
Where two headings read alike, the source gives them in different places.

Biological target: T1, Cloned Human Serotonin Receptor, Subtype 7 (h5HT7), expressed in CHO cells (Homo sapiens, UniProt P34969)
T1 construct: purchased PerkinElmer 6120512; host or cells: CHO cells
Assay: Radioligand binding assay, [125I]LSD, cloned human 5HT7 receptor on Flashplate
Conditions: for inhibition at 1 µM: read-out: %-Inhib. (10^−6 M)
Description: The protocol assay was essentially the recommended protocol in the Technical Data Sheet by PerkinEmer Life and Analytical Sciences. The Mass membrane protein/well was typically 12 μg and the Receptor/well was about 9-10 fmoles. The Flashplate were let equilibrate at room temperature for one hour before the addition of the components of the assay mixture. The binding buffer was: 50 mM Tris-HCl, pH 7.4, containing 10 mM MgCl2, 0.5 mM EDTA and 0.5% BSA. […] Nonspecific binding was determined with 50 μM of Clozapine. The assay volume was 25 μl. TopSeal-A were applied onto Flashplate microplates and they were incubated at room temperature for 240 minutes in darkness.

[1] = compound at 10^−6 M, radioligand [125I]LSD 0.82 nM

T1 sequence (P34969 whole entry): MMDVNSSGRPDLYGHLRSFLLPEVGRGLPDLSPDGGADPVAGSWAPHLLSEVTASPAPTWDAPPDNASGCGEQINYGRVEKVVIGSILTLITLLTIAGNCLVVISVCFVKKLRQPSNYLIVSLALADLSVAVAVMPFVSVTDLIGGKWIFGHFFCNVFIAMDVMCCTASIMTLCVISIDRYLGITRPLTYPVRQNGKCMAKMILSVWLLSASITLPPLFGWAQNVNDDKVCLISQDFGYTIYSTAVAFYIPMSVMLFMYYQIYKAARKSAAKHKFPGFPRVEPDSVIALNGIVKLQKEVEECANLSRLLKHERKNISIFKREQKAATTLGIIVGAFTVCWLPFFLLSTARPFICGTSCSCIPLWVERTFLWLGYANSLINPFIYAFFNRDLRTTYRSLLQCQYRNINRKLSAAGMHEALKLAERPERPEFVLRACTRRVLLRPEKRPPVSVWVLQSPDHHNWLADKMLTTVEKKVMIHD

| Structure (SMILES) | inhibition at 1 µM [1] [%] | IC50 (radioligand [125I]LSD 0.82 nM) [nM] | inhibition at 1 µM [%] | IC50 [nM] |
| --- | --- | --- | --- | --- |
| Cn1cc(CN2CCN(c3ccccc3)CC2)c2ccccc21 [Ex 1, 1-methyl-3-((4-phenylpiperazin-1-yl)methyl)-1H-indole] | 22.3 |  |  |  |
| Oc1cccc(N2CCN(Cc3ccc(OC(F)(F)F)cc3)CC2)c1 [Ex 2, 3-(4-(4-(trifluoromethoxy)benzyl)piperazin-1-yl)phenol] | 15.1 |  |  |  |
| c1ccc(OCCN2CCN(c3cccc4[nH]ccc34)CC2)cc1 [Ex 3, 4-(4-(2-phenoxyethyl)piperazin-1-yl)-1H-indole] | 53.7 | 1940 |  |  |
| Fc1cc2c(c(CN3CCN(C4CCc5ccccc5C4)CC3)c1)OCOC2 (stereo not drawn) [Ex 4, 1-((6-fluoro-4H-benzo[d][1,3]dioxin-8-yl)methyl)-4-(1,2,3,4-tetrahydronaphthalen-2-yl)piperazine] | 49 | 2330 |  |  |
| Cc1cc(NC(=O)CN2CCN(c3cccc4[nH]ccc34)CC2)n(C)n1 [Ex 5, 2-(4-(1H-indol-4-yl)piperazin-1-yl)-N-(1,3-dimethyl-1H-pyrazol-5-yl)acetamide] | 14.3 |  |  |  |
| CC[C@H](C)C(=O)N1CCN(Cc2cc(C(C)C)ccc2OC)CC1 [Ex 6, (S)-1-(4-(5-isopropyl-2-methoxybenzyl)piperazin-1-yl)-2-methylbutan-1-one] | 15 |  |  |  |
| N#CCCCN1CCN(c2cccc3[nH]ccc23)CC1 [Ex 7, 4-(4-(1H-indol-4-yl)piperazin-1-yl)butanenitrile] |  | 713 | 49.6 |  |
| COc1ccc(C(C)C)cc1CN1CCN(C(=O)c2ccsc2)CC1 [Ex 8, (4-(5-isopropyl-2-methoxybenzyl)piperazin-1-yl)(thiophen-3-yl)methanone] | 30.5 |  |  |  |
| COc1ccc(C(C)C)cc1CN1CCN(C(=O)c2ccc(Br)cc2)CC1 [Ex 9, (4-bromophenyl)(4-(5-isopropyl-2-methoxybenzyl)piperazin-1-yl)methanone] | 68.1 | 1790 |  |  |
| Cc1ccc(N2CCN(Cc3ccc(Cl)nc3)CC2)c(C)c1 [Ex 10, 1-((6-chloropyridin-3-yl)methyl)-4-(2,4-dimethylphenyl)piperazine] | 16.6 |  |  |  |
| COc1ccc(C(C)C)cc1CN1CCN(C(=O)Cc2c[nH]c3ccccc23)CC1 [Ex 11, 2-(1H-indol-3-yl)-1-(4-(5-isopropyl-2-methoxybenzyl)piperazin-1-yl)ethanone] |  |  | 16.3 |  |
| COc1ccc(CN2CCN(c3ccc(OC)c(OC)c3)CC2)c(OC)n1 [Ex 12, 1-(3,4-dimethoxyphenyl)-4-((2,6-dimethoxypyridin-3-yl)methyl)piperazine] | -0.3 |  |  |  |
| Cc1ccc(N2CCN(Cc3ccc(OC4CCCCO4)cc3)CC2)c(C)c1 (stereo not drawn) [Ex 13, 1-(2,4-dimethylphenyl)-4-(4-(tetrahydro-2H-pyran-2-yloxy)benzyl)piperazine] | 12.1 |  |  |  |
| FC(F)(F)c1cccc(N2CCN(Cc3cccnc3Nc3ccccc3)CC2)c1 [Ex 14, N-phenyl-3-((4-(3-(trifluoromethyl)phenyl)piperazin-1-yl)methyl)pyridin-2-amine] | 19.5 |  |  |  |
| COc1ccc(CN2CCN(c3ccccc3OC(C)C)CC2)c(OC)n1 [Ex 15, 1-((2,6-dimethoxypyridin-3-yl)methyl)-4-(2-isopropoxyphenyl)piperazine] |  |  | 92.2 | 82.2 |
| COc1ccc(CN2CCN(c3ccc(C)cc3C)CC2)c(OC)n1 [Ex 16, 1-((2,6-dimethoxypyridin-3-yl)methyl)-4-(2,4-dimethylphenyl)piperazine] | 8.8 |  |  |  |
| Cn1cc(CN2CCN(c3cccc(C(F)(F)F)c3)CC2)c(=O)n(C)c1=O [Ex 17, 1,3-dimethyl-5-((4-(3-(trifluoromethyl)phenyl)piperazin-1-yl)methyl)pyrimidine-2,4(1H,3H)-dione] | 28.5 |  |  |  |

| Structure (SMILES) | inhibition at 1 µM [1] [%] | IC50 (radioligand [125I]LSD 0.82 nM) [nM] | inhibition at 1 µM [%] | IC50 [nM] |
| --- | --- | --- | --- | --- |
| COc1ccc(CN2CCN(c3ccc(Cl)cc3)CC2)c(OC)n1 [Ex 18, 1-(4-chlorophenyl)-4-((2,6-dimethoxypyridin-3-yl)methyl)piperazine] | 12.3 |  |  |  |
| c1cc(N2CCN(Cc3ccc(OC4CCCCO4)cc3)CC2)c2cc[nH]c2c1 (stereo not drawn) [Ex 19, 4-(4-(4-(tetrahydro-2H-pyran-2-yloxy)benzyl)piperazin-1-yl)-1H-indole] | 59.5 | 1140 |  |  |
| Cc1cccc(-n2c(=O)c(CN3CCN(c4cccc5[nH]ccc45)CC3)cc3cccnc32)c1 [Ex 20, 3-((4-(1H-indol-4-yl)piperazin-1-yl)methyl)-1-m-tolyl-1,8-naphthyridin-2(1H)-one] | 51.9 | 423 |  |  |
| COc1ccc(CN2CCN(c3cccc(C(F)(F)F)c3)CC2)c(OC)n1 [Ex 21, 1-((2,6-dimethoxypyridin-3-yl)methyl)-4-(3-(trifluoromethyl)phenyl)piperazine] | 9.4 |  |  |  |
| COc1ccc(CN2CCN(c3cccc4[nH]ccc34)CC2)c(OC)n1 [Ex 22, 4-(4-((2,6-dimethoxypyridin-3-yl)methyl)piperazin-1-yl)-1H-indole] | 114 | 109 |  |  |
| COc1ccc(C(C)C)cc1CN1CCN(c2ccc(Cl)cc2)CC1 [Ex 23, 1-(4-chlorophenyl)-4-(5-isopropyl-2-methoxybenzyl)piperazine] | 35.9 |  |  |  |
| COc1ccc(C(C)C)cc1CN1CCN(c2ccc(C)cc2C)CC1 [Ex 24, 1-(2,4-dimethylphenyl)-4-(5-isopropyl-2-methoxybenzyl)piperazine] | 41.6 |  |  |  |
| Clc1ccc(CN2CCN(c3cccc4[nH]ccc34)CC2)cn1 [Ex 25, 4-(4-((6-chloropyridin-3-yl)methyl)piperazin-1-yl)-1H-indole] |  |  | 66.8 | 328 |
| O=[N+]([O-])c1ccc(N2CCN(Cc3cccnc3Nc3ccccc3)CC2)cc1 [Ex 26, 3-((4-(4-nitrophenyl)piperazin-1-yl)methyl)-N-phenylpyridin-2-amine] | -4.6 |  |  |  |
| COc1ccc(C(C)C)cc1CN1CCN(c2ncccn2)CC1 [Ex 27, 2-(4-(5-isopropyl-2-methoxybenzyl)piperazin-1-yl)pyrimidine] | 48.9 |  |  |  |
| c1ccc2[nH]c(CN3CCN(c4cccc5[nH]ccc45)CC3)nc2c1 [Ex 28, 2-((4-(1H-indol-4-yl)piperazin-1-yl)methyl)-1H-benzo[d]imidazole] | 28.8 |  |  |  |
| c1ccc(CN2CCN(c3cccc4[nH]ccc34)CC2)cc1 [Ex 30, 4-(4-benzylpiperazin-1-yl)-1H-indole] | 83.1 | 339 |  |  |
| Fc1ccccc1CN1CCN(c2cccc3[nH]ccc23)CC1 [Ex 31, 4-(4-(2-fluorobenzyl)piperazin-1-yl)-1H-indole] |  | 460 | 82.6 |  |
| c1ccc2cc(CN3CCN(c4cccc5[nH]ccc45)CC3)ccc2c1 [Ex 32, 4-(4-(naphthalen-2-ylmethyl)piperazin-1-yl)-1H-indole] |  | 760 | 78.3 |  |
| Clc1ccccc1CN1CCN(c2cccc3[nH]ccc23)CC1 [Ex 33, 4-(4-(2-chlorobenzyl)piperazin-1-yl)-1H-indole] |  | 223 | 78.2 |  |
| Clc1ccc(CN2CCN(c3cccc4[nH]ccc34)CC2)cc1Cl [Ex 34, 4-(4-(3,4-dichlorobenzyl)piperazin-1-yl)-1H-indole] |  | 1240 | 54.7 |  |
| Clc1ccc(CN2CCN(c3cccc4[nH]ccc34)CC2)c(Cl)c1 [Ex 35, 4-(4-(2,4-dichlorobenzyl)piperazin-1-yl)-1H-indole] | 51.3 |  |  |  |
